From ChEMBL document CHEMBL1201862, “PubChem BioAssay data set” (2004)
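Briefly, cells in 96-well plates were exposed to five compound concentrations for 48 h, and endpoints were estimated by linear interpolation. At the GI50, growth is halved.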 The source made the active and inactive calls. Rule as the data show it: active = GI50 up to about 1.1 µM and inactive = higher.

How the values were obtained:
Assay in all cases: DTP human tumour cell line panel, 48 h
MDA-MB-435 = tested on: MDA-MB-435
MDA-N = tested on: MDA-N
SR = tested on: SR
SW-620 = tested on: SW-620
A498 = tested on: A498
RXF 393 = tested on: RXF 393
OVCAR-8 = tested on: OVCAR-8
HCC 2998 = tested on: HCC 2998
SN12C = tested on: SN12C
COLO 205 = tested on: COLO 205
RPMI-8226 = tested on: RPMI-8226
786-0 = tested on: 786-0
HOP-62 = tested on: HOP-62
Malme-3M = tested on: Malme-3M
MDA-MB-231 = tested on: MDA-MB-231
MCF7 = tested on: MCF7
HT-29 = tested on: HT-29
NCI-H23 = tested on: NCI-H23
DU-145 = tested on: DU-145
SF-295 = tested on: SF-295
SK-OV-3 = tested on: SK-OV-3
SK-MEL-28 = tested on: SK-MEL-28
SNB-19 = tested on: SNB-19
PC-3 = tested on: PC-3
SK-MEL-5 = tested on: SK-MEL-5
NCI-H460 = tested on: NCI-H460
Hs-578T = tested on: Hs-578T
HCT-116 = tested on: HCT-116
UO-31 = tested on: UO-31
A549 = tested on: A549
TK-10 = tested on: TK-10
ACHN = tested on: ACHN
SK-MEL-2 = tested on: SK-MEL-2
NCI-H522 = tested on: NCI-H522
MOLT-4 = tested on: MOLT-4
UACC-257 = tested on: UACC-257
OVCAR-5 = tested on: OVCAR-5
LOX IMVI = tested on: LOX IMVI
SF-268 = tested on: SF-268
SNB-75 = tested on: SNB-75
CCRF-CEM = tested on: CCRF-CEM
OVCAR-4 = tested on: OVCAR-4
OVCAR-3 = tested on: OVCAR-3
BT-549 = tested on: BT-549
K562 = tested on: K562
IGROV-1 = tested on: IGROV-1
CAKI-1 = tested on: CAKI-1
T47D = tested on: T47D
HL-60 = tested on: HL-60
NCI/ADR-RES = tested on: NCI/ADR-RES
HCT-15 = tested on: HCT-15
SF-539 = tested on: SF-539
UACC-62 = tested on: UACC-62
U-251 = tested on: U-251
EKVX = tested on: EKVX
KM12 = tested on: KM12
M14 = tested on: M14
NCI-H226 = tested on: NCI-H226
HOP-92 = tested on: HOP-92

SMILES: O=c1cc(CNC2CC3CCC2C3)[nH]c(=O)[nH]1 (stereo unspecified)
- GI50 (MDA-MB-435): > 100 µM (inactive)
- GI50 (MDA-N): > 100 µM (inactive)
- GI50 (SR): > 100 µM (inactive)
- GI50 (SW-620): > 100 µM (inactive)
- GI50 (A498): > 100 µM (inactive)
- GI50 (RXF 393): > 100 µM (inactive)
- GI50 (OVCAR-8): > 100 µM (inactive)
- GI50 (HCC 2998): > 100 µM (inactive)
- GI50 (SN12C): > 100 µM (inactive)
- GI50 (COLO 205): > 100 µM (inactive)
- GI50 (RPMI-8226): > 100 µM (inactive)
- GI50 (786-0): > 100 µM (inactive)
- GI50 (HOP-62): > 100 µM (inactive)
- GI50 (Malme-3M): > 100 µM (inactive)
- GI50 (MDA-MB-231): > 100 µM (inactive)
- GI50 (MCF7): > 100 µM (inactive)
- GI50 (HT-29): > 100 µM (inactive)
- GI50 (NCI-H23): > 100 µM (inactive)
- GI50 (DU-145): > 100 µM (inactive)
- GI50 (SF-295): > 100 µM (inactive)
- GI50 (SK-OV-3): > 100 µM (inactive)
- GI50 (SK-MEL-28): > 100 µM (inactive)
- GI50 (SNB-19): > 100 µM (inactive)
- GI50 (PC-3): > 100 µM (inactive)
- GI50 (SK-MEL-5): > 100 µM (inactive)
- GI50 (NCI-H460): > 100 µM (inactive)
- GI50 (Hs-578T): > 100 µM (inactive)
- GI50 (HCT-116): > 100 µM (inactive)
- GI50 (UO-31): > 100 µM (inactive)
- GI50 (A549): > 100 µM (inactive)
- GI50 (TK-10): > 100 µM (inactive)
- GI50 (ACHN): > 100 µM (inactive)
- GI50 (SK-MEL-2): > 100 µM (inactive)
- GI50 (NCI-H522): > 100 µM (inactive)
- GI50 (MOLT-4): > 100 µM (inactive)
- GI50 (UACC-257): > 100 µM (inactive)
- GI50 (OVCAR-5): > 100 µM (inactive)
- GI50 (LOX IMVI): > 100 µM (inactive)
- GI50 (SF-268): > 100 µM (inactive)
- GI50 (SNB-75): > 100 µM (inactive)
- GI50 (CCRF-CEM): > 100 µM (inactive)
- GI50 (OVCAR-4): > 100 µM (inactive)
- GI50 (OVCAR-3): > 100 µM (inactive)
- GI50 (BT-549): > 100 µM (inactive)
- GI50 (K562): > 100 µM (inactive)
- GI50 (IGROV-1): > 100 µM (inactive)
- GI50 (CAKI-1): > 100 µM (inactive)
- GI50 (T47D): > 100 µM (inactive)
- GI50 (HL-60): > 100 µM (inactive)
- GI50 (NCI/ADR-RES): > 100 µM (inactive)
- GI50 (HCT-15): > 100 µM
- GI50 (SF-539): > 100 µM (inactive)
- GI50 (UACC-62): > 100 µM (inactive)
- GI50 (U-251): > 100 µM (inactive)
- GI50 (EKVX): > 100 µM (inactive)
- GI50 (KM12): > 100 µM (inactive)
- GI50 (M14): > 100 µM (inactive)

SMILES: COc1ccc(OC2OC(COC(c3ccccc3)(c3ccc(OC)cc3)c3ccc(OC)cc3)C(O)C(O)C2O)cc1 (stereo unspecified)
- GI50 (MDA-MB-435): 3.13 µM (inactive)
- GI50 (MDA-N): 4.37 µM (inactive)
- GI50 (SR): 3.74 µM (inactive)
- GI50 (SW-620): 3.77 µM (inactive)
- GI50 (A498): 11.7 µM (inactive)
- GI50 (OVCAR-8): 5.24 µM (inactive)
- GI50 (HCC 2998): 3.44 µM (inactive)
- GI50 (SN12C): 2.51 µM (inactive)
- GI50 (COLO 205): 3.85 µM (inactive)
- GI50 (RPMI-8226): 4.47 µM (inactive)
- GI50 (786-0): 2.32 µM (inactive)
- GI50 (HOP-62): 11.4 µM (inactive)
- GI50 (NCI-H226): 12.3 µM (inactive)
- GI50 (Malme-3M): 2.77 µM (inactive)
- GI50 (MDA-MB-231): 4.6 µM (inactive)
- GI50 (MCF7): 3.75 µM (inactive)
- GI50 (HT-29): 2.4 µM (inactive)
- GI50 (NCI-H23): 3.66 µM (inactive)
- GI50 (DU-145): 21.3 µM (inactive)
- GI50 (SF-295): 4.28 µM (inactive)
- GI50 (SK-OV-3): 6.43 µM (inactive)
- GI50 (SK-MEL-28): 2.41 µM (inactive)
- GI50 (SNB-19): 9.66 µM (inactive)
- GI50 (PC-3): 2.09 µM (inactive)
- GI50 (SK-MEL-5): 5.06 µM (inactive)
- GI50 (NCI-H460): 2.99 µM (inactive)
- GI50 (Hs-578T): 3.96 µM (inactive)
- GI50 (HCT-116): 3.26 µM (inactive)
- GI50 (UO-31): 2.06 µM (inactive)
- GI50 (A549): 2.99 µM (inactive)
- GI50 (TK-10): 5.33 µM (inactive)
- GI50 (ACHN): 4 µM (inactive)
- GI50 (SK-MEL-2): 2.61 µM (inactive)
- GI50 (NCI-H522): 3.49 µM (inactive)
- GI50 (MOLT-4): 1.33 µM (inactive)
- GI50 (UACC-257): 6.64 µM (inactive)
- GI50 (OVCAR-5): 6.25 µM (inactive)
- GI50 (LOX IMVI): 1.8 µM (inactive)
- GI50 (SF-268): 3.39 µM (inactive)
- GI50 (SNB-75): 3.32 µM (inactive)
- GI50 (CCRF-CEM): 2.08 µM (inactive)
- GI50 (OVCAR-3): 4.21 µM (inactive)
- GI50 (BT-549): 12.5 µM (inactive)
- GI50 (K562): 2.84 µM (inactive)
- GI50 (IGROV-1): 5.93 µM (inactive)
- GI50 (CAKI-1): 4.75 µM (inactive)
- GI50 (T47D): 6.76 µM (inactive)
- GI50 (HL-60): 2.58 µM (inactive)
- GI50 (NCI/ADR-RES): 3.48 µM (inactive)
- GI50 (HCT-15): 2.86 µM
- GI50 (SF-539): 4.42 µM (inactive)
- GI50 (UACC-62): 3.43 µM (inactive)
- GI50 (U-251): 3.6 µM (inactive)
- GI50 (EKVX): 4.7 µM (inactive)
- GI50 (KM12): 3.55 µM (inactive)
- GI50 (M14): 2.84 µM (inactive)

SMILES: N#CC1=C(C#N)/C(=C(\C#N)C(C#N)C#N)N=C1N
- GI50 (MDA-MB-435): 16.9 µM (inactive)
- GI50 (MDA-N): 15.4 µM (inactive)
- GI50 (SR): 25.2 µM (inactive)
- GI50 (SW-620): 28.5 µM (inactive)
- GI50 (A498): 25.9 µM (inactive)
- GI50 (RXF 393): 31.9 µM (inactive)
- GI50 (OVCAR-8): 52 µM (inactive)
- GI50 (HCC 2998): 33.4 µM (inactive)
- GI50 (SN12C): 49.4 µM (inactive)
- GI50 (COLO 205): 26.9 µM (inactive)
- GI50 (RPMI-8226): 32.6 µM (inactive)
- GI50 (786-0): 39.4 µM (inactive)
- GI50 (HOP-62): 26.7 µM (inactive)
- GI50 (NCI-H226): 30 µM (inactive)
- GI50 (Malme-3M): 17.1 µM (inactive)
- GI50 (MDA-MB-231): 91.4 µM (inactive)
- GI50 (MCF7): 45.8 µM (inactive)
- GI50 (HT-29): 23.5 µM (inactive)
- GI50 (NCI-H23): 32.1 µM (inactive)
- GI50 (DU-145): 38.9 µM (inactive)
- GI50 (SF-295): 31.2 µM (inactive)
- GI50 (SK-OV-3): 57.9 µM (inactive)
- GI50 (SK-MEL-28): 21.1 µM (inactive)
- GI50 (SNB-19): 51.9 µM (inactive)
- GI50 (PC-3): 28.7 µM (inactive)
- GI50 (SK-MEL-5): 17.3 µM (inactive)
- GI50 (NCI-H460): 28.6 µM (inactive)
- GI50 (Hs-578T): 28.2 µM (inactive)
- GI50 (HCT-116): 27.4 µM (inactive)
- GI50 (UO-31): 35.5 µM (inactive)
- GI50 (A549): 21.4 µM (inactive)
- GI50 (TK-10): > 32.6 µM (inactive)
- GI50 (ACHN): 33.3 µM (inactive)
- GI50 (SK-MEL-2): 14.7 µM (inactive)
- GI50 (NCI-H522): 13.8 µM (inactive)
- GI50 (MOLT-4): 13.4 µM (inactive)
- GI50 (UACC-257): 19.6 µM (inactive)
- GI50 (OVCAR-5): 33.5 µM (inactive)
- GI50 (HOP-92): 28.2 µM (inactive)
- GI50 (LOX IMVI): 19.1 µM (inactive)
- GI50 (SF-268): 32.7 µM (inactive)
- GI50 (SNB-75): 41.8 µM (inactive)
- GI50 (CCRF-CEM): 8.07 µM (inactive)
- GI50 (OVCAR-4): 28.2 µM (inactive)
- GI50 (OVCAR-3): 34.5 µM (inactive)
- GI50 (BT-549): 24.4 µM (inactive)
- GI50 (K562): 31.5 µM (inactive)
- GI50 (IGROV-1): 50.1 µM (inactive)
- GI50 (CAKI-1): 46.2 µM (inactive)
- GI50 (T47D): > 100 µM (inactive)
- GI50 (NCI/ADR-RES): 50.8 µM (inactive)
- GI50 (HCT-15): 22.6 µM
- GI50 (SF-539): 22.4 µM (inactive)
- GI50 (UACC-62): 15.1 µM (inactive)
- GI50 (U-251): 35.6 µM (inactive)
- GI50 (EKVX): 43.9 µM (inactive)
- GI50 (KM12): 64.4 µM (inactive)
- GI50 (M14): 15.6 µM (inactive)
